Literature values, collected in patent publication US11701355B2, “Levosimendan for treating pulmonary hypertension with heart failure with preserved ejection fraction (PH-HFpEF)” (Tenax Therapeutics, Inc., priority 2019, dated 2023).

How the values were obtained:
PH-HFpEF patients [1] = conditions: acute; cited from earlier work
HFpEF patients [2] = conditions: in vivo; cited from earlier work
patients with PH-HFpEF = conditions: in vivo; cited from earlier work
HFpEF patients [3] = conditions: in vivo; cited from earlier work; remark: listed apart in the source
[4] = system: phosphodiesterase-3 (PDE3); conditions: in vitro; cited from earlier work
PDE4 = conditions: in vitro; cited from earlier work
[5] = system: whole cardiomyocytes and isolated contractile apparatus preparations; conditions: cited from earlier work
[6] = heart failure subjects; cited from earlier work
[7] = system: patients with left heart disease; conditions: in vivo; cited from earlier work
PH-HFpEF patients [8] = conditions: after 12 weeks, 52 patients; cited from earlier work
patients with HFpEF = conditions: long term treatment, 216 patients; cited from earlier work
HFpEF patients [9] = conditions: inhaled 3 times a day for 4 weeks; cited from earlier work

COC(=O)N(C)c1c(N)nc(-c2nn(Cc3ccccc3F)c3ncccc23)nc1N [riociguat]
TPG or pulmonary vascular resistance (PH-HFpEF patients [1]): no change | primary outcome, mean pulmonary arterial pressure (PH-HFpEF patients [1]): not achieved

COC(=O)Nc1c(N)nc(-c2nn(Cc3ccccc3F)c3ncc(F)cc23)nc1N [vericiguat]
primary endpoints (HFpEF patients [2]): no significant changes

COc1ccccc1Oc1c(NS(=O)(=O)c2ccc(C(C)(C)C)cc2)nc(-c2ncccn2)nc1OCCO [bosentan]
clinical outcomes compared with placebo (patients with PH-HFpEF): worse clinical outcomes | six minute walk test or echocardiographic evaluation of pulmonary hypertension (patients with PH-HFpEF): no improvements

sacubitril/valsartan
reduction in the primary endpoint (HFpEF patients [3]): not statistically significant

CC(=O)Nc1ccc(C2=NNC(=O)C[C@H]2C)cc1 [OR-1896, (R)-N-(4-(4-methyl-6-oxo-1,4,5,6-tetrahydropyridazin-3-yl)phenyl) acetamide]
potency in the inhibition of PDE3 compared with levosimendan [4]: profoundly less potent | potency in the inhibition of PDE4 compared with levosimendan (PDE4): profoundly less potent | inotropic effects compared with levosimendan [5]: equipotent to levosimendan | half-life [6]: 70 to 80 h

CCCNS(=O)(=O)Nc1ncnc(OCCOc2ncc(Br)cn2)c1-c1ccc(Br)cc1 [macitentan]
hemodynamic parameters (pulmonary vascular resistance, mean pulmonary arterial pressure, pulmonary artery wedge pressure) [7]: no change

CCCc1nn(C)c2c(=O)[nH]c(-c3cc(S(=O)(=O)N4CCN(C)CC4)ccc3OCC)nc12 [sildenafil]
mPAP (PH-HFpEF patients [8]): no change | six-minute walk time, clinical status, or quality of life (patients with HFpEF): failed to improve

O=NO [sodium nitrite]
primary endpoint of peak oxygen consumption during cardiopulmonary exercise; secondary endpoints (HFpEF patients [9]): unable to demonstrate any improvement
